The record followed here is article PMC4727767, “Synthesis and In Vitro Biological Evaluation of 1,3,4-Oxadiazol-2(3H)-one and Tetrahydropyridazine-3,6-dione Derivatives of Fatty Acids” (Scientia Pharmaceutica, 2015).

Assay type in all cases: cell-based
Assay [1] relates to HeLa (cervical) cell line. Put plainly: MTT cytotoxicity assay, HeLa. The settings on record: Homo sapiens, growth inhibition by 50% after 48 hr treatment. The source says:
(§1) The newly synthesized compounds, 3a–d and 6a–c, combined the benefits of the aforementioned 1,3,4-oxadiazol-2(3H)-one and tetrahydropyridazine-3,6-dione moieties with their fatty acid substituent to give a new scaffold. To check the anticancer potency, the compounds 3a–d and 6a–c were screened in vitro for cytotoxicity against MDA-MB-231 (Breast), KCL-22 (Lymphoblastoid), and HeLa (cervical) cell lines, while PBMC (peripheral blood mononuclear cells) were used as a normal cell. Doxorubicin and 5-Fluorouracil were used as standard cytotoxic drugs. A period of 48 hours of drug exposure was chosen to test cytotoxicity. The MTT cell viability assay based on the conversion of the soluble yellowish MTT to the insoluble purple formazan crystal by active mitochondrial […] of living cells was used for the measurement of cell proliferation. The inhibitory concentration (IC50) of 3a–d and 6a–c compounds were screened against the MDA-MB-231, KCL-22, and HeLa cell lines as given in Table 1. The effect of standard drugs (Doxorubicin and 5-Fluorouracil) on the MDA-MB-231, KCL-22, and HeLa cell lines, and PBMC are represented in Fig. 4.
(§2) The MDA-MB-231, KCL-22, and HeLa cell lines were maintained in RPMI 1640 (Sigma Aldrich, USA) culture medium supplemented with 10% heat-inactivated fetal calf serum (Sigma Aldrich, USA), and antibiotic antimycotic solution (Sigma Aldrich, USA).
(§3) The cells were plated at a density of (5×10^4 / well) in 96-well plates and cultured for 24 hours at 37°C. The cytotoxicity of compounds was determined by the MTT assay which involves the percentage viability of a cell in response to variable doses of compounds. After incubation for 48 hours, cell proliferation was measured by adding 20 μL of MTT dye (5 mg/mL in phosphate-buffered saline) per well. The plates were incubated for 4 hours more at 37°C in a humidified chamber containing 5% CO2. Active mitochondrial dehydrogenases of living cells reduced the yellow tetrazolium salt (dye) to an insoluble purple formazan crystal. Formazan crystals formed due to the reduction of tetrazoline dye by viable cells in each well which were dissolved in 150 μL dimethyl sulfoxide, and absorbance was read at 570 nm using a plate reader (Bio-Rad). The percentage of inhibition of cell viability was determined with reference to the untreated control. To determine the IC50 value, a linear regression analysis method was used.
(Formazan colour is commonly taken as a measure of viable cells.)

Assay [2] has as its system PBMC (peripheral blood mononuclear cells). Put plainly: MTT cytotoxicity assay, normal cells PBMC. The conditions noted are these: 48 hr treatment.
Excerpt: as §1
Fresh blood ([…]) was provided by the Blood Bank JNMC AMU, Aligarh. After dilution with the same volume of PBS, the diluted blood sample was layered on the Ficoll-Histopaque (Sigma Aldrich, USA). The mixture was centrifuged at 400×g for 30 min at 20–22°C followed by separation of the lymphocyte layer. Then the lymphocyte layer was washed and pelleted down with three volumes of PBS twice and resuspended with RPMI-1640 media with antibiotic and antimycotic solution 10%, v/v fetal calf serum (FCS).
as §3

Assay [3] concerns MDA-MB-231 (Breast) cell line. The assay is described as follows: MTT cytotoxicity assay, MDA-MB-231. The settings on record: Homo sapiens, growth inhibition by 50% after 48 hr treatment.
Excerpt: as §1, §2, §3

Assay [4] relates to KCL-22 (Lymphoblastoid) cell line. Put plainly: MTT cytotoxicity assay, KCL-22. The settings on record: Homo sapiens, growth inhibition by 50% after 48 hr treatment.
Excerpt: as §1, §2, §3

As to `C=CCCCCCCCCc1n[nH]c(=O)o1` [3a, 5-(Dec-9-en-1-yl)-1,3,4-oxadiazol-2(3H)-one], the 50% inhibitory concentration (IC50) (as a rule, the concentration needed to halve the response being measured) in assay [1] is 17.1 ± 2.1 µM; in assay [2], 39.7 ± 1.4 µM; in assay [3] it was 12.3 ± 1.6 µM; in assay [4] it was 15.5 ± 1.8 µM.

For the compound `CCCCCCCC/C=C\CCCCCCCc1n[nH]c(=O)o1` [3b, 5-[(8Z)-Heptadec-8-en-1-yl]-1,3,4-oxadiazol-2(3H)-one], the IC50 in assay [1] is 12.3 ± 2.4 µM; in assay [2], greater than 50 µM; in assay [3], 9.3 ± 1.3 µM; in assay [4], 13.6 ± 1.3 µM.

With `CCCCCC[C@@H](O)C/C=C\CCCCCCCc1n[nH]c(=O)o1` [3c, 5-[(8Z,11R)-11-Hydroxyheptadec-8-en-1-yl]-1,3,4-oxadiazol-2(3H)-one], the IC50 in assay [1] came out at 9.6 ± 1.2 µM; in assay [2] it was 46.3 ± 1.3 µM; in assay [3] it was 6.3 ± 1.1 µM; in assay [4], 8.3 ± 1.2 µM.

For the compound `CCCCCCCCCCCCCCCCCc1n[nH]c(=O)o1` [3d, 5-Heptadecyl-1,3,4-oxadiazol-2(3H)-one], the IC50 in assay [1] is 26.2 ± 1.5 µM; in assay [2], 41.4 ± 1.4 µM; in assay [3], 15.4 ± 1.8 µM; in assay [4], 11.8 ± 1.6 µM.

On to `O=c1[nH]cc(F)c(=O)[nH]1` [5-Fluorouracil, reference compound], for which the IC50 in assay [1] amounted to 2.18 ± 0.8 µM; in assay [2], 11.1 ± 2.3 µM; in assay [3], 2.42 ± 0.09 µM; in assay [4], 2.52 ± 1 µM.

In the case of `C=CCCCCCCCCC(=O)N1NC(=O)CCC1=O` [6a, 1-(Undec-10-enoyl)tetrahydropyridazine-3,6-dione], the IC50 in assay [1] worked out at 19.3 ± 1.4 µM; in assay [2], 44.8 ± 1.3 µM; in assay [3], 18.9 ± 2.2 µM; in assay [4], 16.4 ± 2.1 µM.

For `CCCCCCCC/C=C\CCCCCCCC(=O)N1NC(=O)CCC1=O` [6b, 1-[(9Z)-Octadec-9-enoyl]tetrahydropyridazine-3,6-dione], the IC50 in assay [1] came to 13.4 ± 2.4 µM; in assay [2], 43.2 ± 1.5 µM; in assay [3] it was 11.1 ± 1.8 µM; in assay [4] it was 8.1 ± 1.4 µM.

As to `CCCCCCCCCCCCCCCC(=O)N1NC(=O)CCC1=O` [6c, 1-Hexadecanoyltetrahydropyridazine-3,6-dione], the IC50 in assay [1] worked out at 21.2 ± 1.6 µM; in assay [2] it was 43.6 ± 1.4 µM; in assay [3], 25.7 ± 1.4 µM; in assay [4] it was 17.6 ± 2.2 µM.

As for `COc1cccc2c1C(=O)c1c(O)c3c(c(O)c1C2=O)C[C@@](O)(C(=O)CO)C[C@@H]3O[C@H]1C[C@H](N)[C@H](O)[C@H](C)O1` [Doxorubicin, reference compound], the IC50 in assay [1] was 1.9 ± 0.09 µM; in assay [2], 9.39 ± 1.9 µM; in assay [3], 1.6 ± 0.09 µM; in assay [4] it was 1.1 ± 0.08 µM.
